#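 The compound was tested at five concentrations on cells cultured in 96-well plates, with a 48-hour exposure period. TGI denotes the concentration required for complete inhibition of growth.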
# Columns and labels:
# Assay in all cases: DTP human tumour cell line panel, 48 h
# A549 NSCLC = test system: A549 NSCLC
# DU-145 prostate = test system: DU-145 prostate
# SNB-75 CNS = test system: SNB-75 CNS
# 786-0 renal = test system: 786-0 renal
# COLO 205 colon = test system: COLO 205 colon
# NCI-H226 lung = test system: NCI-H226 lung
# NCI-H460 lung = test system: NCI-H460 lung
# RXF 393 renal = test system: RXF 393 renal
# MDA-N = test system: MDA-N
# SF-539 CNS = test system: SF-539 CNS
# BT-549 breast = test system: BT-549 breast
# SK-MEL-5 melanoma = test system: SK-MEL-5 melanoma
# IGROV1 ovarian = test system: IGROV1 ovarian
# TK-10 renal = test system: TK-10 renal
# HCC-2998 colon = test system: HCC-2998 colon
# ACHN renal = test system: ACHN renal
# NCI-H23 lung = test system: NCI-H23 lung
# T-47D breast = test system: T-47D breast
# LOX IMVI melanoma = test system: LOX IMVI melanoma
# OVCAR-4 ovarian = test system: OVCAR-4 ovarian
# CAKI-1 renal = test system: CAKI-1 renal
# OVCAR-3 ovarian = test system: OVCAR-3 ovarian
# MCF7 breast = test system: MCF7 breast
# SK-MEL-2 melanoma = test system: SK-MEL-2 melanoma
# M14 melanoma = test system: M14 melanoma
# MDA-MB-435 = test system: MDA-MB-435
# A498 renal = test system: A498 renal
# HT29 colon = test system: HT29 colon
# SNB-19 CNS = test system: SNB-19 CNS
# HCT-116 colon = test system: HCT-116 colon
# UACC-257 melanoma = test system: UACC-257 melanoma
# U251 CNS = test system: U251 CNS
# HL-60(TB) leukemia = test system: HL-60(TB) leukemia
# SF-268 CNS = test system: SF-268 CNS
# SN12C renal = test system: SN12C renal
# HOP-62 NSCLC = test system: HOP-62 NSCLC
# OVCAR-5 ovarian = test system: OVCAR-5 ovarian
# SK-MEL-28 melanoma = test system: SK-MEL-28 melanoma
# UACC-62 melanoma = test system: UACC-62 melanoma
# UO-31 renal = test system: UO-31 renal
# MDA-MB-231 breast = test system: MDA-MB-231 breast
# HOP-92 NSCLC = test system: HOP-92 NSCLC
# MOLT-4 leukemia = test system: MOLT-4 leukemia
# SK-OV-3 ovarian = test system: SK-OV-3 ovarian
# NCI/ADR-RES ovarian = test system: NCI/ADR-RES ovarian
# KM12 colon = test system: KM12 colon
# HCT-15 colon = test system: HCT-15 colon
# EKVX NSCLC = test system: EKVX NSCLC
# SW-620 colon = test system: SW-620 colon
# SF-295 CNS = test system: SF-295 CNS
# OVCAR-8 ovarian = test system: OVCAR-8 ovarian
# RPMI-8226 leukemia = test system: RPMI-8226 leukemia
# PC-3 prostate = test system: PC-3 prostate
# MALME-3M melanoma = test system: MALME-3M melanoma
# CCRF-CEM leukemia = test system: CCRF-CEM leukemia
# K-562 leukemia = test system: K-562 leukemia
# SR leukemia = test system: SR leukemia
# NCI-H522 lung = test system: NCI-H522 lung
smiles,measurement,setting,value
CCCCN(CC)C(=O)C1=C(C)NC(C)=C(C(=O)N(CC)CCCC)C1,TGI,A549 NSCLC,> 100 µM
same,TGI,DU-145 prostate,> 100 µM
same,TGI,SNB-75 CNS,> 100 µM
same,TGI,786-0 renal,> 100 µM
same,TGI,COLO 205 colon,> 100 µM
same,TGI,NCI-H226 lung,> 100 µM
same,TGI,NCI-H460 lung,> 100 µM
same,TGI,RXF 393 renal,> 100 µM
same,TGI,MDA-N,> 100 µM
same,TGI,SF-539 CNS,> 100000 nM
same,TGI,BT-549 breast,> 100000 nM
same,TGI,SK-MEL-5 melanoma,> 100 µM
same,TGI,IGROV1 ovarian,> 100 µM
same,TGI,TK-10 renal,> 100 µM
same,TGI,HCC-2998 colon,> 100 µM
same,TGI,ACHN renal,> 100 µM
same,TGI,NCI-H23 lung,> 100 µM
same,TGI,T-47D breast,> 100 µM
same,TGI,LOX IMVI melanoma,> 100 µM
same,TGI,OVCAR-4 ovarian,> 100 µM
same,TGI,CAKI-1 renal,> 100 µM
same,TGI,OVCAR-3 ovarian,> 100 µM
same,TGI,MCF7 breast,> 100 µM
same,TGI,SK-MEL-2 melanoma,> 100 µM
same,TGI,M14 melanoma,> 100 µM
same,TGI,MDA-MB-435,> 100 µM
same,TGI,A498 renal,> 100 µM
same,TGI,HT29 colon,> 100 µM
same,TGI,SNB-19 CNS,> 100 µM
same,TGI,HCT-116 colon,> 100 µM
same,TGI,UACC-257 melanoma,> 100 µM
same,TGI,U251 CNS,> 100 µM
same,TGI,HL-60(TB) leukemia,> 100 µM
same,TGI,SF-268 CNS,> 100 µM
same,TGI,SN12C renal,> 100 µM
same,TGI,HOP-62 NSCLC,> 100 µM
same,TGI,OVCAR-5 ovarian,> 100 µM
same,TGI,SK-MEL-28 melanoma,> 100 µM
same,TGI,UACC-62 melanoma,> 100 µM
same,TGI,UO-31 renal,> 100 µM
same,TGI,MDA-MB-231 breast,> 100 µM
same,TGI,HOP-92 NSCLC,> 100 µM
same,TGI,MOLT-4 leukemia,> 100 µM
same,TGI,SK-OV-3 ovarian,> 100 µM
same,TGI,NCI/ADR-RES ovarian,> 100 µM
same,TGI,KM12 colon,> 100 µM
same,TGI,HCT-15 colon,> 100 µM
same,TGI,EKVX NSCLC,> 100 µM
same,TGI,SW-620 colon,> 100 µM
same,TGI,SF-295 CNS,> 100 µM
same,TGI,OVCAR-8 ovarian,> 100 µM
CCOC(=O)c1csc(NC(=O)CN2CCN(c3ccccc3)CC2)n1,TGI,A549 NSCLC,> 100 µM
same,TGI,DU-145 prostate,> 100 µM
same,TGI,SNB-75 CNS,> 100 µM
same,TGI,COLO 205 colon,> 100 µM
same,TGI,NCI-H226 lung,> 100 µM
same,TGI,NCI-H460 lung,> 100 µM
same,TGI,RXF 393 renal,> 100 µM
same,TGI,RPMI-8226 leukemia,> 100 µM
same,TGI,MDA-N,> 100 µM
same,TGI,SK-MEL-5 melanoma,> 100 µM
same,TGI,IGROV1 ovarian,> 100 µM
same,TGI,TK-10 renal,> 100 µM
same,TGI,HCC-2998 colon,> 100 µM
same,TGI,ACHN renal,> 100 µM
same,TGI,NCI-H23 lung,> 100 µM
same,TGI,T-47D breast,> 100 µM
same,TGI,LOX IMVI melanoma,> 100 µM
same,TGI,OVCAR-4 ovarian,> 100 µM
same,TGI,CAKI-1 renal,> 100 µM
same,TGI,OVCAR-3 ovarian,> 100 µM
same,TGI,MCF7 breast,> 100 µM
same,TGI,SK-MEL-2 melanoma,> 100 µM
same,TGI,M14 melanoma,> 100 µM
same,TGI,PC-3 prostate,> 100 µM
same,TGI,MDA-MB-435,> 100 µM
same,TGI,A498 renal,> 100 µM
same,TGI,MALME-3M melanoma,> 100000 nM
same,TGI,HT29 colon,> 100 µM
same,TGI,SNB-19 CNS,> 100 µM
same,TGI,UACC-257 melanoma,> 100 µM
same,TGI,U251 CNS,> 100 µM
same,TGI,HL-60(TB) leukemia,> 100 µM
same,TGI,CCRF-CEM leukemia,> 100000 nM
same,TGI,HOP-62 NSCLC,> 100 µM
same,TGI,OVCAR-5 ovarian,> 100 µM
same,TGI,SK-MEL-28 melanoma,> 100 µM
same,TGI,UACC-62 melanoma,> 100 µM
same,TGI,UO-31 renal,> 100 µM
same,TGI,MDA-MB-231 breast,> 100 µM
same,TGI,K-562 leukemia,> 100 µM
same,TGI,HOP-92 NSCLC,> 100 µM
same,TGI,SR leukemia,> 100 µM
same,TGI,MOLT-4 leukemia,> 100 µM
same,TGI,SK-OV-3 ovarian,> 100 µM
same,TGI,NCI/ADR-RES ovarian,> 100 µM
same,TGI,KM12 colon,> 100 µM
same,TGI,HCT-15 colon,> 100 µM
same,TGI,EKVX NSCLC,> 100 µM
same,TGI,SW-620 colon,> 100 µM
same,TGI,SF-295 CNS,> 100 µM
same,TGI,OVCAR-8 ovarian,> 100 µM
COc1cc2c(cc1OCCCCCN1C(=O)c3cccc4cccc(c34)C1=O)N=C[C@@H]1CCCN1C2=O,TGI,A549 NSCLC,3.3 µM
same,TGI,DU-145 prostate,6.9 µM
same,TGI,SNB-75 CNS,1.24 µM
same,TGI,NCI-H226 lung,0.574 µM
same,TGI,NCI-H460 lung,> 100 µM
same,TGI,RXF 393 renal,0.0493 µM
same,TGI,RPMI-8226 leukemia,> 26.2 µM
same,TGI,MDA-N,0.331 µM
same,TGI,SF-539 CNS,2550 nM
same,TGI,BT-549 breast,855 nM
same,TGI,IGROV1 ovarian,0.535 µM
same,TGI,TK-10 renal,2.78 µM
same,TGI,HCC-2998 colon,> 100 µM
same,TGI,ACHN renal,0.827 µM
same,TGI,NCI-H23 lung,0.458 µM
same,TGI,T-47D breast,8.25 µM
same,TGI,LOX IMVI melanoma,0.785 µM
same,TGI,OVCAR-4 ovarian,> 100 µM
same,TGI,OVCAR-3 ovarian,0.524 µM
same,TGI,SK-MEL-2 melanoma,0.548 µM
same,TGI,M14 melanoma,0.349 µM
same,TGI,MDA-MB-435,0.306 µM
same,TGI,A498 renal,1.3 µM
same,TGI,MALME-3M melanoma,364 nM
same,TGI,HT29 colon,1.5 µM
same,TGI,SNB-19 CNS,4.15 µM
same,TGI,HCT-116 colon,3.13 µM
same,TGI,UACC-257 melanoma,1.84 µM
same,TGI,U251 CNS,> 100 µM
same,TGI,SF-268 CNS,> 100 µM
same,TGI,SN12C renal,9.62 µM
same,TGI,CCRF-CEM leukemia,67.7 nM
same,TGI,OVCAR-5 ovarian,15.5 µM
same,TGI,SK-MEL-28 melanoma,0.966 µM
same,TGI,UACC-62 melanoma,0.297 µM
same,TGI,UO-31 renal,0.454 µM
same,TGI,MDA-MB-231 breast,> 100 µM
same,TGI,K-562 leukemia,> 100 µM
same,TGI,NCI-H522 lung,167 nM
same,TGI,HOP-92 NSCLC,0.747 µM
same,TGI,MOLT-4 leukemia,> 100 µM
same,TGI,NCI/ADR-RES ovarian,0.89 µM
same,TGI,KM12 colon,0.391 µM
same,TGI,HCT-15 colon,4.06 µM
same,TGI,EKVX NSCLC,1.85 µM
same,TGI,SF-295 CNS,4.66 µM
same,TGI,OVCAR-8 ovarian,1.47 µM
